Tested on: S. aureus (ATCC 29213)
Assay: MICs of compound having Formula IV and ciprofloxacin alone and in combination
Format: cell-based
Conditions: against S. aureus; alone
Description: Compositions having various combinations of concentrations of compound having Formula IV and cirprofloxacin were tested systematically against S. aureus, P. aeruginosa, and E. coli.

## O=C(O)c1cn(C2CC2)c2cc(N3CCNCC3)c(F)cc2c1=O [Ciprofloxacin, ciprofloxacin]
  effectiveness in words: effective

Reference: patent publication US8173640B1, “Compositions and methods for treating, reducing, ameliorating, or preventing infections” (Bausch & Lomb Incorporated, priority 2007, dated 2012)
